Laboratory results as given in patent US20130230485A1, “Methods for Treating Patients Undergoing Multi-Cycle Chemotherapy” (priority 2012, published 2013).
“Also recorded” adds a separate entry of the source.

Tests used:
[1] = tested on: patients with recurrent ovarian cancer receiving gemcitabine and a platin; experiment: Phase 2 study: pharmacodynamic effects on peripheral platelet counts and ANC; format: in vivo, human
Source text: (§1) Following Institutional Review Board protocol approval and patient signature of an informed consent form, eligible patients were randomized in a 1:1:1 ratio to receive 100 mcg/kg/day TXA127, 300 mcg/kg/day TXA127, or placebo with gemcitabine plus carboplatin or cisplatin. The randomization was stratified by the patients' intended chemotherapy regimen (see below). The Investigator, patient, and Sponsor were blinded to the treatment assignment. Treatment consisted of up to six consecutive 21-day cycles of one of the following chemotherapy regimens:
(§2) Regimen A • Intravenous cisplatin therapy at a dose between 30 and 50 mg/m^2 (inclusive) given on Day 1 of the cycle • Intravenous gemcitabine at a dose of 800 mg/m^2 given on Day 1 after cisplatin and on Day 8 of the cycle • Regimen B • Intravenous gemcitabine at a dose of 1,000 mg/m^2 given on Days 1 and 8 of the cycle • Intravenous carboplatin AUC range of 4-6 given on Day 1 of the cycle after gemcitabine
(§3) Study drug (TXA127 or placebo) was administered subcutaneously during each treatment cycle once daily for 5 consecutive days following the first chemotherapy agent (Days 2-6) and for 7 consecutive days following the second chemotherapy agent (Days 9-15). At Baseline, End-of-Treatment and weekly throughout each treatment cycle, blood specimens were collected for determination of hematologic variables. Hematologic responses were evaluated based on the National Cancer Institute Common Terminology Criteria for Adverse Events (NCl-CTCAE), Version 3.0.
The following parameters were evaluated to assess the pharmacodynamic effects of TXA127 on peripheral platelet counts: nadir platelet count, maximal platelet count, and maximum percentage increase and decrease from baseline.

[2] = tested on: patients with recurrent ovarian cancer receiving gemcitabine and a platin; experiment: Phase 2 study: adverse events / safety analysis; format: in vivo, human
Source text: as §1, §2, §3
Thirty-two patients who underwent randomization were included in the efficacy analysis according to their randomly assigned treatment group (intention-to-treat principle). Two additional patients were excluded from this analysis: one patient treated with 100 mcg/kg TXA127 was excluded due to consent withdrawal and one patient treated with 300 mcg/kg TXA127 was excluded due to disease progression. Both patients initiated a single cycle of chemotherapy and had no study drug-related adverse events. All patients were included in the safety analysis.

## CC[C@H](C)[C@H](NC(=O)[C@H](Cc1ccc(O)cc1)NC(=O)[C@@H](NC(=O)[C@H](CCCNC(=N)N)NC(=O)[C@@H](N)CC(=O)O)C(C)C)C(=O)N[C@@H](Cc1c[nH]cn1)C(=O)N1CCC[C@H]1C(=O)O [TXA127, Asp-Arg-Val-Tyr-Ile-His-Pro]
[1]; 100 mcg/kg TXA127
  ANC relative to placebo (in words): decrease in the nadir ANC relative to placebo; also recorded: significant reduction in ANC
  maximal percentage decrease in ANC post-baseline: 85%
[1]; 300 mcg/kg TXA127
  maximal percentage decrease in ANC post-baseline: 78%
[2]; 100 mcg group (11 patients)
  Frequency of Adverse Events: Abdominal Distension: 1
  Frequency of Adverse Events: Abdominal Pain: 4
  Frequency of Adverse Events: Anaemia: 4
  Frequency of Adverse Events: Arthralgia: 1
  Frequency of Adverse Events: Back Pain: 5
  Frequency of Adverse Events: Constipation: 7
  Frequency of Adverse Events: Cough: 0
  Frequency of Adverse Events: Decreased Appetite: 3
  Frequency of Adverse Events: Dizziness: 3
  Frequency of Adverse Events: Dyspepsia: 4
  Frequency of Adverse Events: Dyspnea: 0
  Frequency of Adverse Events: Dysuria: 2
  Frequency of Adverse Events: Epistaxis: 0
  Frequency of Adverse Events: Fatigue: 6
  Frequency of Adverse Events: Headache: 5
  Frequency of Adverse Events: Hypersensitivity: 1
  Frequency of Adverse Events: Leukopenia: 3
  Frequency of Adverse Events: Nausea: 7
  Frequency of Adverse Events: Neutropenia: 5
  Frequency of Adverse Events: Oropharyngeal Pain: 1
  Frequency of Adverse Events: Pyrexia: 3
  Frequency of Adverse Events: Rash: 1
  Frequency of Adverse Events: Thrombocytopenia: 5
  Frequency of Adverse Events: Vomiting: 4
[2]; 100 mcg/kg TXA127
  thrombocytosis following treatment: One patient experienced thrombocytosis
[2]; 100 mcg/kg group
  patients who discontinued study drug due to a treatment-emergent adverse event: Two
[2]; 300 mcg group (13 patients)
  Frequency of Adverse Events: Abdominal Distension: 4
  Frequency of Adverse Events: Abdominal Pain: 1
  Frequency of Adverse Events: Anaemia: 5
  Frequency of Adverse Events: Arthralgia: 1
  Frequency of Adverse Events: Back Pain: 5
  Frequency of Adverse Events: Constipation: 5
  Frequency of Adverse Events: Cough: 2
  Frequency of Adverse Events: Decreased Appetite: 0
  Frequency of Adverse Events: Dizziness: 3
  Frequency of Adverse Events: Dyspepsia: 2
  Frequency of Adverse Events: Dyspnea: 5
  Frequency of Adverse Events: Dysuria: 1
  Frequency of Adverse Events: Epistaxis: 1
  Frequency of Adverse Events: Fatigue: 7
  Frequency of Adverse Events: Headache: 5
  Frequency of Adverse Events: Hypersensitivity: 2
  Frequency of Adverse Events: Leukopenia: 2
  Frequency of Adverse Events: Nausea: 9
  Frequency of Adverse Events: Neutropenia: 8
  Frequency of Adverse Events: Oropharyngeal Pain: 1
  Frequency of Adverse Events: Pyrexia: 2
  Frequency of Adverse Events: Rash: 5
  Frequency of Adverse Events: Thrombocytopenia: 2
  Frequency of Adverse Events: Vomiting: 5
[2]; 300 mcg/kg group
  patients who discontinued study drug due to a treatment-emergent adverse event: Two
[2]; up to 6 cycles of gemcitabine + platin
  safety with these chemotherapy regimens: The safety of TXA127 was demonstrated
